Experimental data taken from PubChem BioAssay AID256 (DTP/NCI, 2004).
“And” between values parts separate entries of the source, which are not always exact repeats. Equal entries are not always repeated. Toxic doses and inconclusive results are not listed.

Tested on: CD2F1 mice, L1210 leukemia ip, survival T/C
Test: NCI In Vivo Anticancer Drug Screen. Data for tumor model L1210 Leukemia (intraperitoneal) in CD2F1 (CDF1) mice
Settings: higher = longer survival
How it was run: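 Implant tumor; dose compound or vehicle; measure endpoint in both groups; report treated divided by control.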

[1] = endpoint: mean survival time, dose: 100.0 mg/kg/injection, schedule: Q04DX003 (ip), vehicle: saline with Tween-80
[2] = endpoint: mean survival time, dose: 200.0 mg/kg/injection, schedule: Q04DX003 (ip), vehicle: saline with Tween-80
[3] = endpoint: mean survival time, dose: 400.0 mg/kg/injection, schedule: Q04DX003 (ip), vehicle: saline with Tween-80
[4] = endpoint: mean survival time, dose: 6.25 mg/kg/injection, schedule: Q01DX009 (ip), vehicle: Klucel (hydroxypropylcellulose) (HPC)
[5] = endpoint: mean survival time, dose: 12.5 mg/kg/injection, schedule: Q01DX009 (ip), vehicle: Klucel (hydroxypropylcellulose) (HPC)
[6] = endpoint: mean survival time, dose: 100.0 mg/kg/injection, schedule: Q04DX002 (ip), vehicle: saline with Tween-80
[7] = endpoint: mean survival time, dose: 200.0 mg/kg/injection, schedule: Q04DX002 (ip), vehicle: saline with Tween-80
[8] = endpoint: mean survival time, dose: 400.0 mg/kg/injection, schedule: Q04DX002 (ip), vehicle: saline with Tween-80

In the case of `COC(=O)C(O)C(O)C(O)C(O)C(O)CO` (centres undefined), the T/C (endpoint: mean survival time, dose: 100.0 mg/kg/injection, schedule: Q01DX001 (ip), vehicle: saline) is reported as 95 % of control, the T/C (endpoint: mean survival time, dose: 200.0 mg/kg/injection, schedule: Q01DX001 (ip), vehicle: saline) is reported as 98 % of control and the T/C (endpoint: mean survival time, dose: 400.0 mg/kg/injection, schedule: Q01DX001 (ip), vehicle: saline) is reported as 96 % of control.
With `Nc1nc(Br)nc2c1ncn2C1OC(CO)C(O)C1O` (centres undefined) the T/C (endpoint: mean survival time, dose: 75.0 mg/kg/injection, schedule: Q01DX001 (ip), vehicle: saline) was 109 % of control.
For `CC(=O)N1CCCCC1C/C(C)=N/O` (centres undefined), the T/C [1] was 105 % of control, the T/C [2] was 95 % of control and the T/C [3] was 109 % of control.
In the case of `C(#CC[P+](c1ccccc1)(c1ccccc1)c1ccccc1)C[P+](c1ccccc1)(c1ccccc1)c1ccccc1`, the T/C (endpoint: mean survival time, dose: 0.78 mg/kg/injection, schedule: Q01DX009 (ip), vehicle: Klucel (hydroxypropylcellulose) (HPC)) is reported as 92 % of control, the T/C (endpoint: mean survival time, dose: 1.56 mg/kg/injection, schedule: Q01DX009 (ip), vehicle: Klucel (hydroxypropylcellulose) (HPC)) is reported as 92 % of control and the T/C (endpoint: mean survival time, dose: 3.12 mg/kg/injection, schedule: Q01DX009 (ip), vehicle: Klucel (hydroxypropylcellulose) (HPC)) is reported as 90 % of control. For the same compound, the T/C [4] was 101 % of control and the T/C [5] was 93 % of control and 107 % of control.
For `COc1cc2c(cc1O)CCCCC2`, the T/C (endpoint: mean survival time, dose: 50.0 mg/kg/injection, schedule: Q01DX009 (ip), vehicle: other) was 100 % of control, the T/C (endpoint: mean survival time, dose: 100.0 mg/kg/injection, schedule: Q01DX009 (ip), vehicle: other) was 103 % of control and the T/C (endpoint: mean survival time, dose: 200.0 mg/kg/injection, schedule: Q01DX009 (ip), vehicle: other) was 92 % of control.
With `CCC(CNCCC(=O)O)(C(=O)O)C(=O)O` the T/C [6] was 98 % of control, the T/C [7] was 98 % of control and the T/C [8] was 90 % of control.
For `COc1ccn(C2OCCC(OC(C)=O)C2O)c(=O)n1` (centres undefined), the T/C (endpoint: median survival time, dose: 12.5 mg/kg/injection, schedule: Q01DX005 (ip), vehicle: alkali diluted with saline) was 107 % of control, the T/C (endpoint: median survival time, dose: 25.0 mg/kg/injection, schedule: Q01DX005 (ip), vehicle: alkali diluted with saline) was 120 % of control and the T/C (endpoint: median survival time, dose: 50.0 mg/kg/injection, schedule: Q01DX005 (ip), vehicle: alkali diluted with saline) was 120 % of control. For the same compound, the T/C (endpoint: median survival time, dose: 100.0 mg/kg/injection, schedule: Q01DX005 (ip), vehicle: alkali diluted with saline) was 102 % of control and the T/C (endpoint: median survival time, dose: 200.0 mg/kg/injection, schedule: Q01DX005 (ip), vehicle: alkali diluted with saline) was 109 % of control.
`C=C1CC(O)C2C(=C)C(=O)OC2C2C(C)C(=O)CC12` (centres undefined) was tested, and the T/C [4] was 95 % of control, the T/C [5] was 100 % of control and the T/C (endpoint: mean survival time, dose: 25.0 mg/kg/injection, schedule: Q01DX009 (ip), vehicle: Klucel (hydroxypropylcellulose) (HPC)) was 105 % of control.
With `COc1cccc2c1C(=O)c1c(O)c3c(c(O)c1C2=O)C[C@@](O)(C(=O)COC(=O)c1cccnc1)C[C@@H]3OC1CC(N)C(O)C(C)O1` (some centres undefined) the T/C (endpoint: mean survival time, dose: 0.25 mg/kg/injection, schedule: Q01DX009 (ip), vehicle: water) was 104 % of control, the T/C (endpoint: mean survival time, dose: 0.4 mg/kg/injection, schedule: Q01DX009 (ip), vehicle: saline with Tween-80) was 120 % of control and the T/C (endpoint: mean survival time, dose: 0.5 mg/kg/injection, schedule: Q01DX009 (ip), vehicle: water) was 109 % of control. For the same compound, the T/C (endpoint: mean survival time, dose: 1.0 mg/kg/injection, schedule: Q01DX009 (ip), vehicle: water) was 122 % of control, the T/C (endpoint: mean survival time, dose: 1.5 mg/kg/injection, schedule: Q01DX009 (ip), vehicle: saline) was 168 % of control and the T/C (endpoint: mean survival time, dose: 2.0 mg/kg/injection, schedule: Q01DX009 (ip), vehicle: water) was 120 % of control. For the same compound, the T/C (endpoint: mean survival time, dose: 4.0 mg/kg/injection, schedule: Q01DX009 (ip), vehicle: water) was 108 % of control.
With `O=C1c2ccccc2C(=O)c2c(NCCCNCCO)ccc(NCCCNCCO)c21` the T/C (endpoint: mean survival time, dose: 12.5 mg/kg/injection, schedule: Q01DX009 (ip), vehicle: saline with Tween-80) was 104 % of control, the T/C (endpoint: mean survival time, dose: 25.0 mg/kg/injection, schedule: Q01DX009 (ip), vehicle: saline with Tween-80) was 96 % of control and the T/C (endpoint: mean survival time, dose: 50.0 mg/kg/injection, schedule: Q01DX009 (ip), vehicle: saline with Tween-80) was 102 % of control.
`CCCCCCCCCCCCCCCC(=O)N(CCCN)c1ccc(N(CCCN)C(=O)CCCCCCCCCCCCCCC)cc1` was tested, and the T/C [1] was 98 % of control, the T/C [2] was 98 % of control and the T/C [3] was 97 % of control.
In the case of `COc1cc(NC(=O)Nc2cccc(Cl)c2)c(OC)cc1Cl`, the T/C [6] is reported as 94 % of control and the T/C [8] is reported as 91 % of control.
In the case of `COc1ccccc1NC(=O)Oc1ccc(Cl)cc1C`, the T/C [6] is reported as 103 % of control, the T/C [7] is reported as 100 % of control and the T/C [8] is reported as 95 % of control.
